The target of one assay is T1, SHP2 (Homo sapiens, UniProt Q06124).
T1 construct: The expression and purification of the SHP2 catalytic domain (residues 262-528) were described previously; made in house
T1 sequence (Q06124 262-528): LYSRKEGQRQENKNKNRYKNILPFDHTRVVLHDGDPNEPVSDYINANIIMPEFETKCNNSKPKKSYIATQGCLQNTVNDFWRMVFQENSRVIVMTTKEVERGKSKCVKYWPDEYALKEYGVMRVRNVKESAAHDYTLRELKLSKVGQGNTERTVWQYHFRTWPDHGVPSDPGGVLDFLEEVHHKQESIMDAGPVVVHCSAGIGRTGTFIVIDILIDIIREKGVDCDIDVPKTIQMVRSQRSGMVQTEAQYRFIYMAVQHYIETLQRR
Put plainly: PTP activity assay with pNPP as substrate: SHP2. In kind it is biochemical.

A further assay has as its system PP1. The settings on record: cited from earlier work.

Procedure for SHP2: The PTP activity was assayed using pNPP as a substrate at 25° C. in 50 mM 3,3-dimethylglutarate buffer, pH 7.0, containing 1 mM EDTA with an ionic strength of 0.15 M adjusted by NaCl. TTM, TTN and the engineered analogs were analyzed for inhibition of a panel of PTPs at 10 μM compound concentration. For each enzyme screened, test compounds were diluted to 20 μM in 100 μL and combined with 50 μL pNPP at a concentration of 4×Km. The reaction was initiated by the addition of 50 μL of 4× concentrated enzyme and pNPP was allowed to convert to the product p-nitrophenol. The reaction was quenched by the addition of 50 μL of 5N NaOH. Nonenzymatic hydrolysis of pNPP was corrected by measuring the control without the addition of enzyme. Production of p-nitrophenol was monitored by a Spectra MAX385 microplate spectrophotometer (Molecular Devices) at 405 nm using a molar extinction coefficient of 18,000 M^−1 cm^−1. IC50 values were calculated by fitting the absorbance at 405 nm versus inhibitor concentration to the following equation: AI/A0=IC50/(IC50+[I]) where AI is the absorbance at 405 nm of the sample in the presence of inhibitor; Ao is the absorbance at 405 nm in the absence of inhibitor; and [I] is the concentration of the inhibitor.
The effect of the compounds on PTP-catalyzed hydrolysis of p-nitrophenyl phosphate (pNPP) was assessed at pH 7 and 25° C. Members of the PTP superfamily that were included in the screen included the cytosolic PTPs, PTP1B, SHP1, SHP2, Lyp, HePTP, Meg2, and FAP1, the receptor-like PTPs, CD45, LAR, and PTPα, the dual specificity phosphatases VHR, VHX, and Cdc14, and the low molecular weight PTP.
Therefore, all of the IC50 values reported in this study directly reflect the true affinity of the compound for the enzymes tested.

A word on the IC50: it is the concentration at which inhibition is half-maximal. tautomycetin [TTN]: at SHP2 (from IC50 values), the “preference for SHP2 over all PTPs examined” value is recorded as not below 5 fold. Further, the IC50 was 2.9 µM against SHP2 (pNPP as substrate at Km, pH 7.0, 25° C., I = 0.15 M) and 0.0016 µM in the assay with PP1 (literature values). The “preferential inhibition of PP1 relative to PP2A” value with PP1 (literature (Mitsuhashi et al., 2001)) is “about 40 fold”.

(Values after patent US8637684B2, “Tautomycetin and tautomycetin analog biosynthesis” (Wisconsin Alumni Research Foundation, priority 2010, dated 2014).)
